# System: rats
# Experiment: forced swimming test in rats
# Conditions: series Pramipexole + amitriptyline
# Source text: The test can be carried out as follows for each of the combinations of active substances tested.
row,SMILES,Immobility time [s]
1,CN(C)CCC=C1c2ccccc2CCc2ccccc21 [Amitriptyline],174.6 ± 9.2
2,"CCCNC1CCc2nc(N)sc2C1.Cl.Cl (centres unmarked) [Pramipexole, 2-amino-6-n-propylamino4,5,6,7-tetrahydrobenzo-thiazole-dihydrochloride]",164.3 ± 9.8

# Reference: patent publication US6667329B1, “Agents with antidepressant action, containing pramipexol and second antidepressant” (Boehringer Ingelheim Pharma GmbH & Co. KG, priority 1998, dated 2003)
